Here are results for five compounds from PMC11843613, “Further Optimization of the mGlu1 PAM VU6024578/BI02982816: Discovery and Characterization of VU6033685” (ACS Chemical Neuroscience, 2025).

Data set [1] has as its target T1, CYP450 2C9 (Homo sapiens, UniProt P11712).
T1 construct: 0.1 mg/mL human liver microsomes (HLM); from tissue; host or cells: human liver microsomes
Put plainly: Inhibition of cytochrome P450 enzymes in human liver microsomes, 2C9. Type of data set: in vitro ADME. The procedure: Inhibition of Cytochrome P450 Enzymes: A cocktail of substrates for cytochrome P450 enzymes (1A2: Phenacetin, 10 µM; 2C9: Diclofenac, 5 µM; 2D6: Dextromethorphan, 5 µM; 3A4:
Midazolam, 2 µM) were mixed for cocktail analysis. For P450 2C19, the substrate stock (Mephenytoin, 40 µM )and substrate mix were prepared separately for discrete analysis. The […]
positive control for pan-P450 inhibition (miconazole) was included alongside each test compound […]
A reaction mixture of 100 mM Kpi, pH 7.4, 0.1 mg/mL human liver microsomes (HLM) and Substrate Mix is prepared and aliquoted into a 96-deepwell block. Test compound and positive control (in duplicate) were then added such that the final concentration of test compound ranged from 0.1 – 30 µM. The plate was vortexed briefly and then pre-incubated at 37 °C while shaking for 15 minutes. The reaction was initiated with the addition of NADPH (1 mM final concentration). The incubation continued for 8 min and the reaction quenched by 2x volume of cold acetonitrile containing internal standard (50 nM carbamazepine). The plate was centrifuged for 10 minutes (4000 rcf, 4°C) and the resulting supernatant diluted 1:1 with water for LC/MS/MS analysis. A 12 point standard curve of substrate metabolites over the range of 0.98 nM to 2000 […]
Samples were analyzed via electrospray ionization (ESI) on an AB Sciex API-4000 (Foster City, CA) triple-quadrupole instrument that was coupled with Shimadzu LC-10AD pumps (Columbia, MD) and a Leap Technologies CTC PAL auto-sampler (Carrboro, NC). Analytes were separated by gradient elution using a Fortis C18 3.0 x 50 mm, 3 µm column (Fortis Technologies Ltd, Cheshire, UK) thermostated at 40°C. HPLC mobile phase A was 0.1% formic acid in water (pH unadjusted), mobile phase B was 0.1% formic acid in acetonitrile (pH unadjusted). The gradient […]
90% B for 0.1 min and returned to 10% B in 0.1 min followed by a re-equilibration (0.9 min). The total run time was 2.5 min and the HPLC flow rate was 0.5 mL/min. The source temperature was set at 500°C and mass spectral analyses were performed using multiple reaction monitoring (MRM), with transitions specific for each compound utilizing a Turbo-Ionspray® source in positive ionization mode (5.0 kV spray voltage).
The IC50 values for each compound were obtained for the individual CYP enzymes by quantitating the inhibition of metabolite formation for each probe substrate. A 0 µM compound condition (or control) was set to 100% enzymatic activity and the effect of increasing test compound concentrations on enzymatic activity could then be calculated from the % of control activity.
Curves were fitted using XLfit 5.2.2 (four-parameter logistic model, equation 201) to determine the concentration that produces half-maximal inhibition (IC50).
(Microsomes from liver hold many membrane-bound enzymes, among them those of drug oxidation.)

Data set [2] is described as follows: Rat IV/PO pharmacokinetics. Particulars: for clearance / Vd / half-life / Tmax: plasma; for clearance / Vd: rat IV; for clearance: read-out: CLp; for F po / Tmax: rat PO; for Vd / half-life: rat; for Vd: iv, read-out: Vss; for half-life: read-out: Elimination t1/2 (converted). The data set is classed as in vivo.
Data set [3] can be described thus: Predicted hepatic clearance from hepatic microsomes (rat). Type of data set: in vitro ADME. The protocol:
Intrinsic clearance: Human or rat hepatic microsomes (0.5 mg/mL) and 1 µM test compound were incubated in 100 mM potassium phosphate pH 7.4 buffer with 3 mM MgCl2 at 37°C with constant shaking.
After a 5 min preincubation, the reaction was initiated by addition of NADPH (1 mM). At selected time intervals (0, 3, 7, 15, 25, and 45 min), aliquots were taken and subsequently placed into a 96-well plate containing cold acetonitrile with internal standard (50 ng/mL carbamazepine). Plates were then centrifuged at 3000 rcf (4° C) for 10 min, and the supernatant was transferred to a separate 96-well plate and diluted 1:1 with water for LC/MS/MS analysis. The in vitro half-life (T 1/2, min, Eq. 1), intrinsic clearance (CLint, mL/min/kg, Eq. 2) and subsequent predicted hepatic clearance (CLhep, mL/min/kg, Eq. 3) was determined […]
employing the following equations: […]
where k represents the slope from linear regression analysis of the natural log percent remaining of test compound as a function of incubation time
0.693 mL incubation 45 mg microsomes 20a gram liver
(2) CLint = in vitroT x mg microsomes x gram liver x kg body wt […]
ascale-up factors: of 20 (human) or 45 (rat) […]
where Qh (hepatic blood flow, mL/min/kg) is 21 (human) or 70 (rat).
LC/MS/MS Bioanalysis of Samples from Plasma Protein Binding and Intrinsic Clearance Assays. Samples were analyzed on a Thermo Electron TSQ Quantum Ultra triple quad mass spectrometer (San Jose, CA) via electrospray ionization (ESI) with two Themo Electron Accella pumps (San Jose, CA), and a Leap Technologies CTC PAL autosampler (Carrboro, NC). Analytes were separated by gradient elution on a dual column system with two Thermo Hypersil Gold (2.1 x 30 mm, 1.9 µm) columns (San Jose, CA) thermostated at 40°C. HPLC mobile phase A was 0.1% formic acid in water and mobile phase B was 0.1% formic acid in acetonitrile. The gradient […]
95% B for 0.2 min; returned to 10% B in 0.1 min. The total run time was 1.3 min and the HPLC flow rate was 0.8 mL/min. While pump 1 ran the gradient method, pump 2 equilibrated the alternate column isocratically at 10% B. Compound optimization, data collection and […]

One may read the IC50 as the concentration at which inhibition is half-maximal. Read a high IC50 as a need for much substance. What is called Tmax is the time at which the peak concentration occurs.

T1 sequence (P11712 whole entry): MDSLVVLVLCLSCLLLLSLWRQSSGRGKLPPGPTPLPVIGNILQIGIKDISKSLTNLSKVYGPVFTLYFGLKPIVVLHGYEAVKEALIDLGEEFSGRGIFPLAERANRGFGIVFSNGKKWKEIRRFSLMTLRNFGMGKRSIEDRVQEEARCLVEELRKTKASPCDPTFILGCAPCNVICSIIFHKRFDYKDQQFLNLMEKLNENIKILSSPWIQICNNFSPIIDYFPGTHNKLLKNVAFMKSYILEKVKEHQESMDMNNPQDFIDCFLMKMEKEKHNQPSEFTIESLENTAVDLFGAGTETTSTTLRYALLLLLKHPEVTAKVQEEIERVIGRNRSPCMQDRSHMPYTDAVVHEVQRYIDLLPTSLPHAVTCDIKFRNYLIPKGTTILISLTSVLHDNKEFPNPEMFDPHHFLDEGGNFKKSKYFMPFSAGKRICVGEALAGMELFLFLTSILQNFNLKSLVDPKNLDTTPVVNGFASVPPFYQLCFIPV

`Cn1nc(-c2ccnn2C)cc1CNC(=O)c1cc(-n2cccn2)ccc1Cl` [compound 5] returned an IC50 in data set [1] greater than 30 µM. Further, in data set [2], the clearance was found to be 2.9 mL/min/kg, the F po is on record as 45.7%, the Vd is 0.63 L/kg and the half-life is 3 h. In data set [3], the “Predicted CLhep (r)” value is listed as 21.4 mL/min/kg.

In turn, `Cc1nc2c(F)cccc2cc1CNC(=O)c1cc(-n2cccn2)ccc1Cl` [compound 7] displayed an IC50 in data set [1] of 5.9 µM. Moreover, in data set [2], the clearance came out at 8 mL/min/kg, the Vd worked out at 1 L/kg and the half-life was 2.1 h. The “Predicted CLhep (r)” value in data set [3] was 46.8 mL/min/kg.

For the compound `Cc1nc(C2CC2)ccc1CNC(=O)c1cc(-n2cccn2)ccc1Cl` [compound 8], in data set [1], 22.3 µM corresponded to half-maximal inhibition (IC50). In data set [2], the clearance is 26.4 mL/min/kg, the Tmax was 0.5 h, the F po was 42.8% and the Vd is 5.1 L/kg. Also, the half-life in data set [2] is 2.1 h. In addition, in data set [3], the “Predicted CLhep (r)” value is 46.7 mL/min/kg.

For `Cc1nc2ccccc2cc1CNC(=O)c1cc(-n2cccn2)ccc1Cl` [compound 6], in data set [1], the IC50 was 6.4 µM. Moreover, in data set [2], the clearance was found to be 15.3 mL/min/kg, the Tmax is 0.5 h, the F po is listed as 64% and the Vd worked out at 1.64 L/kg. The half-life in data set [2] is 1.1 h. Besides, the “Predicted CLhep (r)” value in data set [3] is given as 47.8 mL/min/kg.

As for `Cn1cc(-c2cc(CNC(=O)c3cc(-c4ccco4)ccc3Cl)n(C)n2)cn1` [compound 4], the IC50 in data set [1] is greater than 30 µM. Further, the “Predicted CLhep (r)” value in data set [3] was 34.2 mL/min/kg.
